Consider 51 substances from patent US11214803B2, “Modulators of YAP1 expression” (Ionis Pharmaceuticals, Inc., priority 2019, dated 2022).

Strand notation (5' to 3'): a small letter for the sugar, then the base; units joined by * are phosphorothioate-linked, units joined directly phosphodiester-linked; [ ] holds rarer units or linkages, { } end groups; capitals alone tell only the bases. e = 2'-O-(2-methoxyethyl) (MOE); k = constrained ethyl (cEt); [5mC] = 5-methylcytosine; d = 2'-deoxy (DNA)

The test system of one data set is Yap1 mRNA. Put plainly: Antisense inhibition of human Yap1 in SNU-449 cells by modified oligonucleotides, single dose (Example 5, RTS36584). In kind it is cell-based. Particulars: Table 40 (separate experiment); SNU-449 cells, 10,000 cells per well, free uptake, 2,000 nM oligonucleotide, approx. 48 hours; RTS36584; normalized to RIBOGREEN; Yap1 mRNA relative to untreated control. Summed up: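 Each modified oligonucleotide is applied by free uptake to SNU-449 cultures at 2,000 nM, and total RNA is harvested around 48 h later. Yap1 transcript, quantified with the RTS36584 set and corrected for RIBOGREEN RNA content, is given as % UTC. Asterisks mark sequences overlapping the amplicon.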
On to “1198719 (kG*eG*kA*dA*dA*dT*dT*dG*dT*d[5mC]*dT*d[5mC]*eA*eT*kG*k[5mC]; antisense) [Compound 1198719]”, for which the “YAP1 (% UTC)” value turned out to be 14 % UTC.
Same read-out and setting: as for “1198720 (kT*eG*kG*dA*dA*dA*dT*dT*dG*dT*d[5mC]*dT*e[5mC]*eA*kT*kG; antisense) [Compound 1198720]”, the figure is 21 % UTC; as for “1198721 (kA*eT*kG*dG*dA*dA*dA*dT*dT*dG*dT*d[5mC]*eT*e[5mC]*kA*kT; antisense) [Compound 1198721]”, 48 % UTC; as for “1198722 (kA*eT*kA*dT*dG*dG*dA*dA*dA*dT*dT*dG*eT*e[5mC]*kT*k[5mC]; antisense) [Compound 1198722]”, 48 % UTC.
Still for that read-out and setting: as for “1198723 (kA*eG*kT*dA*dT*dG*dT*dG*dG*d[5mC]*dA*dA*eT*eA*kA*kT; antisense) [Compound 1198723]”, the figure is 57 % UTC.
On the same count and under the same terms, as for “1198724 (kA*eG*kA*dG*dT*dA*dT*dG*dT*dG*dG*d[5mC]*eA*eA*kT*kA; antisense) [Compound 1198724]”, the figure is 16 % UTC; as for “1198725 (kT*eA*kG*dA*dG*dT*dA*dT*dG*dT*dG*dG*e[5mC]*eA*kA*kT; antisense) [Compound 1198725]”, 23 % UTC; as for “1198726 (kT*eT*kA*dG*dA*dG*dT*dA*dT*dG*dT*dG*eG*e[5mC]*kA*kA; antisense) [Compound 1198726]”, 28 % UTC.
“1198727 (kA*eT*kT*dA*dG*dA*dG*dT*dA*dT*dG*dT*eG*eG*k[5mC]*kA; antisense) [Compound 1198727]”: the “YAP1 (% UTC)” value was 19 % UTC.
Still for that read-out and setting: with “1198728 (kT*eA*kT*dT*dA*dG*dA*dG*dT*dA*dT*dG*eT*eG*kG*k[5mC]; antisense) [Compound 1198728]” the figure was 17 % UTC.
On the same count and under the same terms, as for “1198729 (kA*eT*kA*dT*dT*dA*dG*dA*dG*dT*dA*dT*eG*eT*kG*kG; antisense) [Compound 1198729]”, the figure is 21 % UTC; as for “1198730 (kT*eA*kT*dA*dT*dT*dA*dG*dA*dG*dT*dA*eT*eG*kT*kG; antisense) [Compound 1198730]”, 57 % UTC.
Regarding “1198731 (kT*e[5mC]*kT*dA*dT*dA*dT*dT*dA*dG*dA*dG*eT*eA*kT*kG; antisense) [Compound 1198731]”, the “YAP1 (% UTC)” value was found to be 59 % UTC.
Take “1198732 (kT*eA*kT*dA*dA*d[5mC]*dT*dG*dG*dG*d[5mC]*dA*eA*eA*kT*kT; antisense) [Compound 1198732]”: the “YAP1 (% UTC)” value is recorded as 86 % UTC.
On the same count and under the same terms, as for “1198741 (kT*eT*kA*d[5mC]*dA*dT*dT*dA*dG*dG*dA*dA*e[5mC]*eA*kA*kG; antisense) [Compound 1198741]”, the figure is 60 % UTC; as for “1198742 (kT*eT*kT*dT*dA*d[5mC]*dA*dT*dT*dA*dG*dG*eA*eA*k[5mC]*kA; antisense) [Compound 1198742]”, 143 % UTC; as for “1198743 (k[5mC]*eT*kT*dT*dT*dA*d[5mC]*dA*dT*dT*dA*dG*eG*eA*kA*k[5mC]; antisense) [Compound 1198743]”, 86 % UTC.
Still for that read-out and setting: with “1198744 (kA*e[5mC]*kT*dT*dT*dT*dA*d[5mC]*dA*dT*dT*dA*eG*eG*kA*kA; antisense) [Compound 1198744]” the figure was 66 % UTC.
Same read-out and setting: as for “1198745 (k[5mC]*eA*k[5mC]*dT*dT*dT*dT*dA*d[5mC]*dA*dT*dT*eA*eG*kG*kA; antisense) [Compound 1198745]”, the figure is 57 % UTC; as for “1198746 (kG*e[5mC]*kA*d[5mC]*dT*dT*dT*dT*dA*d[5mC]*dA*dT*eT*eA*kG*kG; antisense) [Compound 1198746]”, 7 % UTC; as for “1198747 (kA*eG*k[5mC]*dA*d[5mC]*dT*dT*dT*dT*dA*d[5mC]*dA*eT*eT*kA*kG; antisense) [Compound 1198747]”, 38 % UTC.
Turning to “1198748 (kA*eA*kG*d[5mC]*dA*d[5mC]*dT*dT*dT*dT*dA*d[5mC]*eA*eT*kT*kA; antisense) [Compound 1198748]”, the “YAP1 (% UTC)” value came to 81 % UTC.
On the same count and under the same terms, as for “1198749 (kT*eT*kA*dA*dG*d[5mC]*dA*d[5mC]*dT*dT*dT*dT*eA*e[5mC]*kA*kT; antisense) [Compound 1198749]”, the figure is 73 % UTC; as for “1198750 (kG*eG*kA*dA*dG*dA*dT*d[5mC]*dT*dG*dA*dA*eA*e[5mC]*kT*k[5mC]; antisense) [Compound 1198750]”, 32 % UTC.
On the same count and under the same terms, as for “1198751 (kT*eT*kG*dG*dA*dA*dG*dA*dT*d[5mC]*dT*dG*eA*eA*kA*k[5mC]; antisense) [Compound 1198751]”, the figure is 76 % UTC; as for “1198752 (kT*eT*kT*dG*dG*dA*dA*dG*dA*dT*d[5mC]*dT*eG*eA*kA*kA; antisense) [Compound 1198752]”, 111 % UTC; as for “1198753 (k[5mC]*eT*kT*dT*dG*dG*dA*dA*dG*dA*dT*d[5mC]*eT*eG*kA*kA; antisense) [Compound 1198753]”, 58 % UTC.
Still for that read-out and setting: as for “1198754 (kG*e[5mC]*kT*dT*dT*dG*dG*dA*dA*dG*dA*dT*e[5mC]*eT*kG*kA; antisense) [Compound 1198754]”, the figure is 23 % UTC; as for “1198755 (kT*eG*k[5mC]*dT*dT*dT*dG*dG*dA*dA*dG*dA*eT*e[5mC]*kT*kG) [Compound 1198755]”, 32 % UTC.
On to “1198756 (kG*eT*kG*d[5mC]*dT*dT*dT*dG*dG*dA*dA*dG*eA*eT*k[5mC]*kT; antisense) [Compound 1198756]”, for which the “YAP1 (% UTC)” value is reported as 50 % UTC.
The same measure, in the same setting: with “1198757 (kA*eG*kT*dG*d[5mC]*dT*dT*dT*dG*dG*dA*dA*eG*eA*kT*k[5mC]; antisense) [Compound 1198757]” the figure was 4 % UTC.
The same measure, in the same setting: with “1198758 (kA*eT*kA*dG*dT*dG*d[5mC]*dT*dT*dT*dG*dG*eA*eA*kG*kA; antisense) [Compound 1198758]” the figure was 47 % UTC; with “1198759 (kA*eG*kG*dA*dT*dG*d[5mC]*dA*dT*dG*dG*dT*eT*eT*kT*kT; antisense) [Compound 1198759]”, 27 % UTC; with “1198760 (kT*eT*kA*dG*dG*dA*dT*dG*d[5mC]*dA*dT*dG*eG*eT*kT*kT; antisense) [Compound 1198760]”, 91 % UTC.
Still for that read-out and setting: as for “1198761 (kT*eT*kT*dA*dG*dG*dA*dT*dG*d[5mC]*dA*dT*eG*eG*kT*kT; antisense) [Compound 1198761]”, the figure is 42 % UTC.
As for “1198763 (kG*eA*kT*dT*dT*dA*dG*dG*dA*dT*dG*d[5mC]*eA*eT*kG*kG; antisense) [Compound 1198763]”, the “YAP1 (% UTC)” value was found to be 26 % UTC.
Take “1198764 (kA*eG*kA*dT*dT*dT*dA*dG*dG*dA*dT*dG*e[5mC]*eA*kT*kG; antisense) [Compound 1198764]”: the “YAP1 (% UTC)” value was 28 % UTC.
Same read-out and setting: as for “1198765 (k[5mC]*eA*kG*dA*dT*dT*dT*dA*dG*dG*dA*dT*eG*e[5mC]*kA*kT) [Compound 1198765]”, the figure is 23 % UTC; as for “1198766 (kT*e[5mC]*kA*dG*dA*dT*dT*dT*dA*dG*dG*dA*eT*eG*k[5mC]*kA; antisense) [Compound 1198766]”, 19 % UTC.
Regarding “1198767 (kA*eT*kT*d[5mC]*dA*dG*dA*dT*dT*dT*dA*dG*eG*eA*kT*kG; antisense) [Compound 1198767]”, the “YAP1 (% UTC)” value came out at 65 % UTC.

Staying with this data set, now noted: Table 41; SNU-449 cells, 10,000 cells per well, free uptake, 2,000 nM modified oligonucleotide, approximately 48 hours; RTS36584; normalized to RIBOGREEN; Yap1 mRNA relative to untreated control cells.
For “1198733 (kG*eG*kT*dA*dT*dA*dA*d[5mC]*dT*dG*dG*dG*e[5mC]*eA*kA*kA; antisense) [Compound 1198733]”, the “YAP1 (% UTC)” value was 47 % UTC.
Still for that read-out and setting: as for “1198734 (kA*eG*kG*dT*dA*dT*dA*dA*d[5mC]*dT*dG*dG*eG*e[5mC]*kA*kA; antisense) [Compound 1198734]”, the figure is 29 % UTC; as for “1198735 (kG*eA*kG*dG*dT*dA*dT*dA*dA*d[5mC]*dT*dG*eG*eG*k[5mC]*kA; antisense) [Compound 1198735]”, 34 % UTC; as for “1198736 (kT*eG*kA*dG*dG*dT*dA*dT*dA*dA*d[5mC]*dT*eG*eG*kG*k[5mC]; antisense) [Compound 1198736]”, 20 % UTC.
Same read-out and setting: as for “1198737 (k[5mC]*eT*kG*dA*dG*dG*dT*dA*dT*dA*dA*d[5mC]*eT*eG*kG*kG; antisense) [Compound 1198737]”, the figure is 24 % UTC.
As for “1198738 (kA*e[5mC]*kT*dG*dA*dG*dG*dT*dA*dT*dA*dA*e[5mC]*eT*kG*kG; antisense) [Compound 1198738]”, the “YAP1 (% UTC)” value came to 38 % UTC.
As to “1198739 (k[5mC]*eA*k[5mC]*dT*dG*dA*dG*dG*dT*dA*dT*dA*eA*e[5mC]*kT*kG; antisense) [Compound 1198739]”, the “YAP1 (% UTC)” value is given as 94 % UTC.
Same read-out and setting: as for “1198740 (AACACTGAGGTATAAC; all C 5-methyl, sugars by position and backbone not given here; position 2 notation garbled, mixed cEt/MOE/deoxy gapmer) [Compound 1198740]”, the figure is 39 % UTC.
Same read-out and setting: with “1198768 (kA*eT*kA*dT*dG*dG*dT*dT*dT*dT*dG*dT*eG*eT*kG*kT; antisense) [Compound 1198768]” the figure was 61 % UTC; with “1198769 (kT*eT*kA*dT*dA*dT*dG*dG*dT*dT*dT*dT*eG*eT*kG*kT; antisense) [Compound 1198769]”, 77 % UTC.
Same read-out and setting: with “1198770 (k[5mC]*eT*kT*dA*dT*dA*dT*dG*dG*dT*dT*dT*eT*eG*kT*kG; antisense) [Compound 1198770]” the figure was 40 % UTC.
